Measured values taken from patent US20110207745A1 (priority 2009, published 2011).
“And” between values parts separate entries of the source, which are not always exact repeats. Identical values can stand only once. Counter-ions that a name gives are not always drawn. Like-named read-outs stand apart in the source and are kept apart here.

Assays:
[1] = for % Purity after 60° C./80% RH, 2 wks / % Purity after 80° C., 2 wks: 2 weeks; for % Purity after 60° C./80% RH, 2 wks / % Purity after 60° C./80% RH, 4 wks / % Purity after 80° C., 2 wks / % Purity after 80° C., 4 wks / Initial Purity / % Purity after 40° C./75% RH, 2 wks / % Purity after 40° C./75% RH, 4 wks: HPLC area %; for % Purity after 60° C./80% RH, 4 wks / % Purity after 80° C., 4 wks: 4 weeks; for Initial Purity: before storage
Procedure: Stress Experiments. Solids are stressed under different temperature or relative humidity (RH) environments for a measured time period. Specific RH values are achieved by placing the sample inside sealed chambers containing saturated salt solutions, as known in the art. The salt solutions are selected and prepared following an ASTM standard procedure. Samples are analyzed by XRPD immediately after removal from the stress environment.
Analyses are carried out on an Agilent® model 1100 high performance liquid chromatograph using gradient elution on a reversed phase column utilizing ultraviolet (UV) detection. Approximately 25 mg of the sample is weighed accurately and dissolved in methanol/water/trifluoroacetic acid (35:65:0.05) to a volume of 50 mL. The sample solution is analysed using the conditions specified below:
The content of the drug and related substances are quantified by area (%).
Chemical Stability. The chemical stability of Form I of the mono-HCl salt of Compound A1 was assessed by stressing the material at various temperature/relative humidity/light conditions, then analyzing by HPLC.
Chemical Stability Data. The chemical stability of a sample of Form I of the sesquifumarate salt of Compound A1 was assessed by stressing the material at various temperature/relative humidity/light conditions, then analyzing by HPLC.

[2] = Solubility in simulated biological media; type: physicochemical; conditions: FaSSIF (fasted-state simulated intestinal fluid), initial pH 6.51, mean ± SD, n = 2
Text: Solubility and Dissolution Rate Data.
Solubility and Dissolution Rate Data. […]

[3] = Intrinsic dissolution rate in simulated biological media; type: physicochemical
Procedure: Intrinsic dissolution rate is determined at 37° C. using a Distek Dissolution System model 5100A with a sample size of approximately 200 mg (0.5 cm^2 disc) and 500 mL dissolution medium. The paddle speed is set to 500 rpm and the paddle height to approximately 2.54 cm above the disc surface. The concentration of sample in solution is determined by HPLC.

rat = test: Punished responding procedure (modified Geller-Seifter conflict test); conditions: 3.5 μmol/kg by mouth
Text: Method. In the conflict test, hungry animals were trained to lever-press for food delivery in a standard operant chamber under 2 conditions. In the first condition, referred to as the unsuppressed component, food was delivered on average after 17 lever-presses were made (also called a VR17 schedule of reinforcement). In the second condition, referred to as the suppressed component and signaled by flashing lights inside the operant chamber, food was also delivered following an average of 17 lever-presses, but electric shock was additionally delivered to the floor of the cage under a separate VR17 schedule. Daily sessions consisted of 5 alternating presentations of each component type: suppressed (3 minutes in duration) and unsuppressed (2 minutes in duration). The number of lever presses emitted in the suppressed component was obviously low relative to the unsuppressed component.
Drug Administration and Preparation. […] Monday and Wednesday were washout/baseline days.
Apparatus. Standard 2-lever operant chambers were used (Med Associates). The chambers were fitted with 2 retractable response levers and a stimulus lamp over each of the 2 levers. A pellet dispenser delivered 45 mg food pellets, (Bio Serv) to a cup located inside of the chamber below and between the 2 response levers. A lamp at the top and back of the chamber served as houselights. The grid floors of the operant chambers were interfaced to shock generators and scramblers (Med Associates). All events in the chambers were controlled and monitored by a microprocessor.
Procedures. There were 2 components in the procedure: 1) an unsuppressed responding component (unpunished) with 2 minutes in duration; and 2) a suppressed responding component (punished) with 3 minutes in duration.
In the unpunished component, the houselights and both stimulus lamps over the response levers were turned on, the lever on the left-hand side of the chamber extended, and a food pellet was delivered following an average of 17 responses on the lever in the chamber (range 3 to 40 responses)—a variable-ratio 17 schedule (VR17).
In the punished component (which followed the unpunished component), the right-hand lever was extended into the chamber; the stimulus lamps and houselights were turned on and off at 1 second intervals, in succession, which served as a cue for this component; and food was available under a VR17 schedule, but was accompanied by an electrical current (0.5 second duration) that was delivered to the grid floor of the chamber under an independent VR17 schedule. The level of the current was adjusted for each individual subject until responding was reduced in the punished component to a level that was about 5% to 10% that of the unpunished component, and ranged from 0.2 mA to 0.75 mA. Unpunished and punished components were separated by 10 second time-out periods in which both response levers were retracted and all stimulus lamps turned off. 2 minute unpunished and 3 minute punished components alternated until 5 of each were completed. Daily sessions always began with the unpunished responding component. […] Several doses were tested on a given test day in different subjects. Each dose, then, was tested in different sub-set of rats.
Data Analysis. The dependent variables recorded were the rate of responding in unpunished and punished components (total responses/total time under the component) and the number of shocks delivered.

[4] = Ultraviolet light, 25° C./60% RH, 2x ICH (2 days), stored open
[5] = Ultraviolet light, 25° C./60% RH, 3x ICH (3 days), stored open
[6] = Ultraviolet light, 25° C./60% RH, ICH (1 day), stored open
[7] = White light, 25° C./60%, ICH (7 days), stored open

CCN(CC)C(=O)c1ccc([C@H](c2cccc(N)c2)N2CCN(Cc3ccc(F)cc3)CC2)cc1 [Amorphous Tri-HCl Salt of Compound A1, 4-{(R)-(3-aminophenyl)[4-(4-fluorobenzyl)piperazin-1-yl]methyl}-N,N-diethylbenzamide]
% Purity after 60° C./80% RH, 2 wks [1]: 93.5% | % Purity after 60° C./80% RH, 4 wks [1]: 89.7% | % Purity after 80° C., 2 wks ([1]; 80° C.): 93.1% | % Purity after 80° C., 4 wks ([1]; 80° C.): 91.1% | Initial Purity [1]: 97.7%

CCN(CC)C(=O)c1ccc([C@H](c2cccc(N)c2)N2CCN(Cc3ccc(F)cc3)CC2)cc1 [Form I of the mono-HCl salt of Compound A1] [4-{(R)-(3-aminophenyl)[4-(4-fluorobenzyl)piperazin-1-yl]methyl}-N,N-diethylbenzamide]
Solubility, 3 hr ([2]; 3 hr): 1720 µg/mL | Solubility, 24 hr ([2]; 24 hr): 830 µg/mL | % Purity (after challenge) ([1]; 25° C./60% RH, 7 days): 99.8% | % Purity (reference material) ([1]; 25° C./60% RH, 7 days): 103.2% | % Purity after 40° C./75% RH, 2 wks ([1]; 40° C./75% RH): 97.3% and 98.8% | % Purity after 40° C./75% RH, 4 wks ([1]; 40° C./75% RH): 97.2% and 98.8% | % Purity (after challenge) ([1]; 40° C./75% RH, 7 days): 99.8% | % Purity (reference material) ([1]; 40° C./75% RH, 7 days): 102.1% | % Purity after 60° C./80% RH, 2 wks [1]: 90.4% and 97.6% | % Purity after 60° C./80% RH, 4 wks [1]: 89.0% and 95.3% | % Purity after 80° C., 2 wks ([1]; 80° C.): 94.1% and 96.9% | % Purity after 80° C., 4 wks ([1]; 80° C.): 92.3% and 95.4% | % Purity (after challenge) ([1]; 80° C., 7 days): 99.8% | % Purity (reference material) ([1]; 80° C., 7 days): 101.4% | % Purity (after challenge) ([1]; Reference, 0 days): 99.8% | % Purity (reference material) ([1]; Reference, 0 days): 100% | % Purity (after challenge) [1, 4]: 99.2% | % Purity (reference material) [1, 4]: 95.0% | % Purity (after challenge) [1, 5]: 99.0% | % Purity (reference material) [1, 5]: 94.7% | % Purity (after challenge) [1, 6]: 99.6% | % Purity (reference material) [1, 6]: 98.0% | % Purity (after challenge) [1, 7]: 98.5% | % Purity (reference material) [1, 7]: 95.6% | Initial Purity [1]: 97.0% and 98.7% | IDR (intrinsic dissolution rate) ([3]; FaSSIF, initial pH 6.51, mean ± SD, n = 2): 48.4 μg/min/cm^2 | IDR (intrinsic dissolution rate) ([3]; FaSSIF, initial pH 6.51, mean ± SD, n = 2, listed as Form I of the Compound A1 Mono-HCl Salt): 48.4 ± 7.12 μg/min/cm^2 | IDR (intrinsic dissolution rate) ([3]; FeSSIF, initial pH 5.03, mean ± SD, n = 2): 91.6 μg/min/cm^2 | IDR (intrinsic dissolution rate) ([3]; FeSSIF, initial pH 5.03, mean ± SD, n = 2, listed as Form I of the Compound A1 Mono-HCl Salt): 91.6 ± 5.48 μg/min/cm^2 | IDR (intrinsic dissolution rate) ([3]; SGF, initial pH 1.3): too soluble to permit determination of its IDR

CCN(CC)C(=O)c1ccc([C@H](c2cccc(N)c2)N2CCN(Cc3ccc(F)cc3)CC2)cc1 [Phosphate Salt of Compound A1, 4-{(R)-(3-aminophenyl)[4-(4-fluorobenzyl)piperazin-1-yl]methyl}-N,N-diethylbenzamide]
% Purity after 40° C./75% RH, 2 wks ([1]; 40° C./75% RH): 88.6% | % Purity after 40° C./75% RH, 4 wks ([1]; 40° C./75% RH): 87.7% | % Purity after 60° C./80% RH, 2 wks [1]: 81.4% | % Purity after 60° C./80% RH, 4 wks [1]: 78.4% | % Purity after 80° C., 2 wks ([1]; 80° C.): 86.6% | % Purity after 80° C., 4 wks ([1]; 80° C.): 83.4% | Initial Purity [1]: 91.2%

CCN(CC)C(=O)c1ccc([C@H](c2cccc(N)c2)N2CCN(Cc3ccc(F)cc3)CC2)cc1 [Sulfate Salt of Compound A1, 4-{(R)-(3-aminophenyl)[4-(4-fluorobenzyl)piperazin-1-yl]methyl}-N,N-diethylbenzamide]
% Purity after 40° C./75% RH, 2 wks ([1]; 40° C./75% RH): 92.6% and 88.7% | % Purity after 40° C./75% RH, 4 wks ([1]; 40° C./75% RH): 91.2% and 87.3% | % Purity after 60° C./80% RH, 2 wks [1]: 74.1% and 80.5% | % Purity after 60° C./80% RH, 4 wks [1]: 62.3% and 80.6% | % Purity after 80° C., 2 wks ([1]; 80° C.): 78.5% and 88.7% | % Purity after 80° C., 4 wks ([1]; 80° C.): 67.1% and 85.7% | Initial Purity [1]: 93.3% and 94.7%

CN1C(=O)CN=C(c2ccccc2)c2cc(Cl)ccc21 [diazepam, reference compound]
level of efficacy in modified Geller-Seifter conflict model (rat): about 250%
